How the values were obtained:
HIPK2 = HIPK2 (Homo sapiens, UniProt Q9H2X6); assay: Kinase panel, radiometric 33P filter binding; conditions: read-out: % activity remaining
Source text: (§2) filter binding assay using 33P-g-ATPat the MRC PPU International Centre for Kinase Profiling, University of

YES1 = YES1 (Homo sapiens, UniProt P07947); assay: Kinase panel, radiometric 33P filter binding; conditions: read-out: % activity remaining
PRK2 = PRK2 (Homo sapiens, UniProt Q16513); assay: Kinase panel, radiometric 33P filter binding; conditions: read-out: % activity remaining
Source text: as §2

BRSK1 = BRSK1 (Homo sapiens, UniProt Q8TDC3); assay: Kinase panel, radiometric 33P filter binding; conditions: read-out: % activity remaining
Source text: as §2

MLK3 = MLK3 (Homo sapiens, UniProt Q16584); assay: Kinase panel, radiometric 33P filter binding; conditions: read-out: % activity remaining
Source text: as §2

EPH-A4 = EPH-A4 (Homo sapiens, UniProt P54764); assay: Kinase panel, radiometric 33P filter binding; conditions: read-out: % activity remaining
Source text: as §2

VEG-FR = VEG-FR (Homo sapiens, UniProt P17948); assay: Kinase panel, radiometric 33P filter binding; conditions: read-out: % activity remaining
Source text: as §2

SIK3 = SIK3 (Homo sapiens, UniProt Q9Y2K2); assay: Kinase panel, radiometric 33P filter binding; conditions: read-out: % activity remaining
Source text: as §2

ULK2 = ULK2 (Homo sapiens, UniProt Q8IYT8); assay: Kinase panel, radiometric 33P filter binding; conditions: read-out: % activity remaining
Source text: as §2

MST3 = MST3 (Homo sapiens, UniProt Q9Y6E0); assay: Kinase panel, radiometric 33P filter binding; conditions: read-out: % activity remaining
DAPK1 = DAPK1 (Homo sapiens, UniProt P53355); assay: Kinase panel, radiometric 33P filter binding; conditions: read-out: % activity remaining
Source text: as §2

ERK5 = ERK5 (Homo sapiens, UniProt Q13164); assay: Kinase panel, radiometric 33P filter binding; conditions: read-out: % activity remaining
Source text: as §2

RIPK2 = RIPK2 (Homo sapiens, UniProt O43353); assay: Kinase panel, radiometric 33P filter binding; conditions: read-out: % activity remaining
PKA = PKA (Homo sapiens, UniProt P17612); assay: Kinase panel, radiometric 33P filter binding; conditions: read-out: % activity remaining
Source text: as §2

MSK1 = MSK1 (Homo sapiens, UniProt O75582); assay: Kinase panel, radiometric 33P filter binding; conditions: read-out: % activity remaining
MARK1 = MARK1 (Homo sapiens, UniProt Q9P0L2); assay: Kinase panel, radiometric 33P filter binding; conditions: read-out: % activity remaining
Source text: as §2

MAPKAP-K3 = MAPKAP-K3 (Homo sapiens, UniProt Q16644); assay: Kinase panel, radiometric 33P filter binding; conditions: read-out: % activity remaining
TTBK1 = TTBK1 (Homo sapiens, UniProt Q5TCY1); assay: Kinase panel, radiometric 33P filter binding; conditions: read-out: % activity remaining
Source text: as §2

MNK1 = MNK1 (Homo sapiens, UniProt Q9BUB5); assay: Kinase panel, radiometric 33P filter binding; conditions: read-out: % activity remaining
MNK2 = MNK2 (Homo sapiens, UniProt Q9HBH9); assay: Kinase panel, radiometric 33P filter binding; conditions: read-out: % activity remaining
TIE2 = TIE2 (Homo sapiens, UniProt Q02763); assay: Kinase panel, radiometric 33P filter binding; conditions: read-out: % activity remaining
LKB1 = LKB1 (Homo sapiens, UniProt Q15831); assay: Kinase panel, radiometric 33P filter binding; conditions: read-out: % activity remaining
Source text: as §2

MARK4 = MARK4 (Homo sapiens, UniProt Q96L34); assay: Kinase panel, radiometric 33P filter binding; conditions: read-out: % activity remaining
Source text: as §2

JNK2 = JNK2 (Homo sapiens, UniProt P45984); assay: Kinase panel, radiometric 33P filter binding; conditions: read-out: % activity remaining
Source text: as §2

GSK3b = GSK3b (Homo sapiens, UniProt P49841); assay: Kinase panel, radiometric 33P filter binding; conditions: read-out: % activity remaining
Source text: as §2

SmMLCK = SmMLCK (Homo sapiens, UniProt Q15746); assay: Kinase panel, radiometric 33P filter binding; format: biochemical
Source text: (§1) Kinase % activity remaining s.d.

CDK9-Cyclin T1 = CDK9-Cyclin T1 (Homo sapiens, UniProt P50750); assay: Kinase panel, radiometric 33P filter binding; format: biochemical; conditions: CDK9-Cyclin T1, 10 μM
Source text: as §1

ABL = ABL (Homo sapiens, UniProt P00519); assay: Kinase panel, radiometric 33P filter binding; format: biochemical
Source text: as §1

Aurora A = Aurora A (Homo sapiens, UniProt O14965); assay: Kinase panel, radiometric 33P filter binding; conditions: read-out: % activity remaining
Source text: as §2

CDK2-Cyclin A = CDK2-Cyclin A (Homo sapiens, UniProt P24941); assay: Kinase panel, radiometric 33P filter binding; conditions: read-out: % activity remaining
Source text: as §2

IGF-1R = IGF-1R (Homo sapiens, UniProt P08069); assay: Kinase panel, radiometric 33P filter binding; conditions: read-out: % activity remaining
Source text: as §2

BRK = BRK (Homo sapiens, UniProt Q13882); assay: Kinase panel, radiometric 33P filter binding; conditions: read-out: % activity remaining
Source text: as §2

PI5P4Kγ = tested on: PI5P4Kγ; set-up: method as in ref 30 (1), ref 23 (2); conditions: 32P-ATP/PI5P incorporation; ref 30 (1), ref 23 (2); cited from earlier work

Sequence of BRSK1 (Q8TDC3 whole entry): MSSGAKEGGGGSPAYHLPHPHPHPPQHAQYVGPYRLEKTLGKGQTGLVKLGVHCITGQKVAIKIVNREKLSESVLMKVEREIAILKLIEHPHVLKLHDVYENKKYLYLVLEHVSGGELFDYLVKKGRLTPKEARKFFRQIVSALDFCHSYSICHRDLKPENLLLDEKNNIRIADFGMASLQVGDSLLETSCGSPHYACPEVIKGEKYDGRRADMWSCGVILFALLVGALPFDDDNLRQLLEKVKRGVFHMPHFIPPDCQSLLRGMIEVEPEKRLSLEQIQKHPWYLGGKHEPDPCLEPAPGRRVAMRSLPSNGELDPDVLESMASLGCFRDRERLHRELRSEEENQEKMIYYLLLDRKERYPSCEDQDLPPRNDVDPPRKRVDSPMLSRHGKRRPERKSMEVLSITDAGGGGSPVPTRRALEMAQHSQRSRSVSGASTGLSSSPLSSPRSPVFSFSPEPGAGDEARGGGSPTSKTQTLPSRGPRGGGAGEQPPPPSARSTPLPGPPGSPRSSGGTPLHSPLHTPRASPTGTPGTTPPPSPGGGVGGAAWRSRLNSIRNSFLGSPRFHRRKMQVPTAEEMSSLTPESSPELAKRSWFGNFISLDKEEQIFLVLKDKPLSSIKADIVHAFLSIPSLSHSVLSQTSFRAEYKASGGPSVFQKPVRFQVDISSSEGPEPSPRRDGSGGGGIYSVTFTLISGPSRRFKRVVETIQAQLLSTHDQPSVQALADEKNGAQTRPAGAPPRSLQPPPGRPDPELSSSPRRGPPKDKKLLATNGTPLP
Sequence of YES1 (P07947 whole entry): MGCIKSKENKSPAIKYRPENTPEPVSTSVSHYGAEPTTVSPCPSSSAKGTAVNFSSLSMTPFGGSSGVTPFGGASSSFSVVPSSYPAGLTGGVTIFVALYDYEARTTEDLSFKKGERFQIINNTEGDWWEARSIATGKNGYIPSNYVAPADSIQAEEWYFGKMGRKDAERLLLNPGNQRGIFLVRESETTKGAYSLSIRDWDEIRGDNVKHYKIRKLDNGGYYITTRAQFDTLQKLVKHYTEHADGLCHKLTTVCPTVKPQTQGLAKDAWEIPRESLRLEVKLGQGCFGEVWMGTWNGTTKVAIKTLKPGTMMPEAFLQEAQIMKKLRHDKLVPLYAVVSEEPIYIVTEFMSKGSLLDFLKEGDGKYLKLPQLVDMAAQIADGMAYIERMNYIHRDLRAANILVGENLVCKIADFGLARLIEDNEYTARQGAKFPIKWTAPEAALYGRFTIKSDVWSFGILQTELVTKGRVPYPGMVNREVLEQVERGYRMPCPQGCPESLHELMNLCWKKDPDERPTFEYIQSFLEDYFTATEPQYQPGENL
Sequence of MAPKAP-K3 (Q16644 whole entry): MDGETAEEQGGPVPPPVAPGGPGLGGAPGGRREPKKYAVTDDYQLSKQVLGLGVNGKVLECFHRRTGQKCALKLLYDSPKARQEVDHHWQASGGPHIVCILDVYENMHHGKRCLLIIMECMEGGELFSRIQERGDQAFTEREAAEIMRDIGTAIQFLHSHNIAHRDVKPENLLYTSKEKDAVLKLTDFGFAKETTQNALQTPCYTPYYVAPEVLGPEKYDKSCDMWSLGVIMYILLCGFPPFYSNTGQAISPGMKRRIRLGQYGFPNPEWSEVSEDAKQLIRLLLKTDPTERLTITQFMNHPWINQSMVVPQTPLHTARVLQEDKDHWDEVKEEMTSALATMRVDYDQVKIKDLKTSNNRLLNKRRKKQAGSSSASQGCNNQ
Sequence of MSK1 (O75582 whole entry): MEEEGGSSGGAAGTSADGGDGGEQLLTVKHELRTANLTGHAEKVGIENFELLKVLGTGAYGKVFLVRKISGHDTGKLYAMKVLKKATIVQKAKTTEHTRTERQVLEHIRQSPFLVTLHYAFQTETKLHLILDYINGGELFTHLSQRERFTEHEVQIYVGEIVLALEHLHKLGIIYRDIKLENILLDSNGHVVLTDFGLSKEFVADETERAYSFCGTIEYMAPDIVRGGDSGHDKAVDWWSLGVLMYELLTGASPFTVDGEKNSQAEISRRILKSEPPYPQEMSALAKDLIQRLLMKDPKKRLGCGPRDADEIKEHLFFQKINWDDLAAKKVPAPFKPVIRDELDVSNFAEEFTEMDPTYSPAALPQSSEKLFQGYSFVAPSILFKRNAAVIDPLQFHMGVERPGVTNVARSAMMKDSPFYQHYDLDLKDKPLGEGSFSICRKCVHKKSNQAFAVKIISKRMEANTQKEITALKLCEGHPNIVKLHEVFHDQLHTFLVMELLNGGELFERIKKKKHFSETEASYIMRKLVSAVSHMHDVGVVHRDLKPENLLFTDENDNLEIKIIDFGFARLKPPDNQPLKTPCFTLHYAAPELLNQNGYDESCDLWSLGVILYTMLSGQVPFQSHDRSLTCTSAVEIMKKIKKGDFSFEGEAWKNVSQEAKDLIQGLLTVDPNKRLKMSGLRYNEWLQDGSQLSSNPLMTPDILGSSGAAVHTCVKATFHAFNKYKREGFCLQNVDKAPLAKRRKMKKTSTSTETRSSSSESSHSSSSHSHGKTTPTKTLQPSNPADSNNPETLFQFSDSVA
Sequence of RIPK2 (O43353 whole entry): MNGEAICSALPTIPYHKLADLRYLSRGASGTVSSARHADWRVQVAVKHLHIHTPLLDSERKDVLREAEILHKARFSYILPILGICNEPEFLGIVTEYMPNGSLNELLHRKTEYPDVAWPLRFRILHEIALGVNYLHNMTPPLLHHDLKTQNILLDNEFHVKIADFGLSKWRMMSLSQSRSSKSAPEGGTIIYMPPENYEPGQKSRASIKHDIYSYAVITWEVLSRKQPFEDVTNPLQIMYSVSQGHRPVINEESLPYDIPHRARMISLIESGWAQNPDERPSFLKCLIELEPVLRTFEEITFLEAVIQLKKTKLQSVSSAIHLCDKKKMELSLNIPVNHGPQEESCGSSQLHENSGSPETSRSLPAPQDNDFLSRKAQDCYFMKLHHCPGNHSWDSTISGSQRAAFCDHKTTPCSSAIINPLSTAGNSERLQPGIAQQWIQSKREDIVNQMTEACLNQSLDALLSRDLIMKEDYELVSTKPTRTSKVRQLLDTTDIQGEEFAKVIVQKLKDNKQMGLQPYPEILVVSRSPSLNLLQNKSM
Sequence of Aurora A (O14965 whole entry): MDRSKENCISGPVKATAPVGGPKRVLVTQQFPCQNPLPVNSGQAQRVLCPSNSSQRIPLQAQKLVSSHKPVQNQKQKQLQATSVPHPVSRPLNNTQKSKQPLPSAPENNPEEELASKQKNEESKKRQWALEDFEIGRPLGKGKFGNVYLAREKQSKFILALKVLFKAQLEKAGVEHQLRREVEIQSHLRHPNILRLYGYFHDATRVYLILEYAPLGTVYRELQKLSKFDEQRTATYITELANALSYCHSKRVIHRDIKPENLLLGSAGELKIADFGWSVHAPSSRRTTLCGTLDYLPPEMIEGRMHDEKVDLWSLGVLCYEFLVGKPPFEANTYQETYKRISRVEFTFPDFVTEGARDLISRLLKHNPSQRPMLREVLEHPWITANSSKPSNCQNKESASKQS
Sequence of CDK9-Cyclin T1 (P50750 whole entry): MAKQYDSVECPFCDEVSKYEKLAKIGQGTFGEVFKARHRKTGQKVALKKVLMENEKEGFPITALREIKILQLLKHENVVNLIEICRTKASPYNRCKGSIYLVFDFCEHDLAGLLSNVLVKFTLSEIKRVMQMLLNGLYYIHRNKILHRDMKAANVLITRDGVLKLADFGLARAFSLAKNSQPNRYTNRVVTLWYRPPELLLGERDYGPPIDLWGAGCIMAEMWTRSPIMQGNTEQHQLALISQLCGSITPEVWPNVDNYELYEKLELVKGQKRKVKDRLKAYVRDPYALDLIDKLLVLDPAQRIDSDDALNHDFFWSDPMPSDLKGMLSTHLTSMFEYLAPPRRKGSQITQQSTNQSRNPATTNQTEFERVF
Sequence of CDK9-Cyclin T1 (O60563 whole entry partner): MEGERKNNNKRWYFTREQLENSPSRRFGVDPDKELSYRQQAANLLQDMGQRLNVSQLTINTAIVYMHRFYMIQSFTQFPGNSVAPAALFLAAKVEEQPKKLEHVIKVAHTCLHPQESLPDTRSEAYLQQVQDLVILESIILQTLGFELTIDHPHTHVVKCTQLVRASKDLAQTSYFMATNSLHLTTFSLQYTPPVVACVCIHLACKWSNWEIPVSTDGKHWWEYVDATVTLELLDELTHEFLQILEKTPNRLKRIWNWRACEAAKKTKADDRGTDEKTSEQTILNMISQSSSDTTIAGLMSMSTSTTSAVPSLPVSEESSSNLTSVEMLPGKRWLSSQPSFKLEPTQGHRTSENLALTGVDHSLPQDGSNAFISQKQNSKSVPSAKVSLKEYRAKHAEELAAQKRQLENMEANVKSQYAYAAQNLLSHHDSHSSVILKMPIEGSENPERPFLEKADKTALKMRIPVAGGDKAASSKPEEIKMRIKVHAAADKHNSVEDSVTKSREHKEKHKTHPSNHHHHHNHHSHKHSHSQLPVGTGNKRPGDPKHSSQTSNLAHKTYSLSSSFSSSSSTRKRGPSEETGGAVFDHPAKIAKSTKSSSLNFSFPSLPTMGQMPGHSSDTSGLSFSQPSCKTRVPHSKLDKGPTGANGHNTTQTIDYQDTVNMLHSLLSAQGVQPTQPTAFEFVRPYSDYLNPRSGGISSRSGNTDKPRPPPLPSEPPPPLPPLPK
Sequence of MNK1 (Q9BUB5 whole entry): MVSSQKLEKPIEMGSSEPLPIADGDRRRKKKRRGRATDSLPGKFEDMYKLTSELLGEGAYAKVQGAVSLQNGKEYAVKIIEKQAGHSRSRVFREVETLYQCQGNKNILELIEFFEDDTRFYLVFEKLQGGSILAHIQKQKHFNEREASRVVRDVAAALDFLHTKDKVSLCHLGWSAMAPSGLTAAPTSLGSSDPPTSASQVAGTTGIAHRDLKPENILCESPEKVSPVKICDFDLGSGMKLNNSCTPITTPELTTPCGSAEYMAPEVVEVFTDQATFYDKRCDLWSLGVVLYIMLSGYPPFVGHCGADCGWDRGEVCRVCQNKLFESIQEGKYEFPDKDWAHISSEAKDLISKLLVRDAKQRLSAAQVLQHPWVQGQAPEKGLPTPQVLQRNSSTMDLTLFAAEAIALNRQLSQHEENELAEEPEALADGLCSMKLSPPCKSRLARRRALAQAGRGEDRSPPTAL

Q: Which remaining activity at 10 µM (HIPK2) does the source give for `CC(C)c1ccccc1-c1nc(NCc2ccccn2)c2c(ccn2C)n1` [Compound 40] here?
A: Its remaining activity at 10 µM is 114%.

Q: What about the remaining activity at 10 µM (YES1) of the same molecule?
A: Its remaining activity at 10 µM is 115%.

Q: What about the remaining activity at 10 µM (PRK2) of the same molecule?
A: The remaining activity at 10 µM was 83%.

Q: And the remaining activity at 10 µM (BRSK1)?
A: The remaining activity at 10 µM was 115%.

Q: And the remaining activity at 10 µM (MLK3)?
A: The remaining activity at 10 µM was 90%.

Q: And the remaining activity at 10 µM (EPH-A4)?
A: The remaining activity at 10 µM was 96%.

Q: And the remaining activity at 10 µM (VEG-FR)?
A: Its remaining activity at 10 µM is 125%.

Q: And the remaining activity at 10 µM (SIK3)?
A: Its remaining activity at 10 µM is 111%.

Q: What about the remaining activity at 10 µM (ULK2) of the same molecule?
A: Its remaining activity at 10 µM is 91%.

Q: What about the remaining activity at 10 µM (MST3) of the same molecule?
A: The remaining activity at 10 µM was 110%.

Q: And the remaining activity at 10 µM (DAPK1)?
A: Its remaining activity at 10 µM is 105%.

Q: And the remaining activity at 10 µM (ERK5)?
A: Its remaining activity at 10 µM is 138%.

Q: And the remaining activity at 10 µM (RIPK2)?
A: The remaining activity at 10 µM was 92%.

Q: And the remaining activity at 10 µM (PKA)?
A: Its remaining activity at 10 µM is 109%.

Q: What about the remaining activity at 10 µM (MSK1) of the same molecule?
A: Its remaining activity at 10 µM is 95%.

Q: And the remaining activity at 10 µM (MARK1)?
A: Its remaining activity at 10 µM is 88%.

Q: And the remaining activity at 10 µM (MAPKAP-K3)?
A: The remaining activity at 10 µM was 102%.

Q: What about the remaining activity at 10 µM (TTBK1) of the same molecule?
A: Its remaining activity at 10 µM is 117%.

Q: And the remaining activity at 10 µM (MNK1)?
A: Its remaining activity at 10 µM is 104%.

Q: What about the remaining activity at 10 µM (MNK2) of the same molecule?
A: The remaining activity at 10 µM was 117%.

Q: And the remaining activity at 10 µM (TIE2)?
A: Its remaining activity at 10 µM is 89%.

Q: And the remaining activity at 10 µM (LKB1)?
A: The remaining activity at 10 µM was 94%.

Q: And the remaining activity at 10 µM (MARK4)?
A: The remaining activity at 10 µM was 105%.

Q: And the remaining activity at 10 µM (JNK2)?
A: The remaining activity at 10 µM was 110%.

Q: What about the remaining activity at 10 µM (GSK3b) of the same molecule?
A: The remaining activity at 10 µM was 93%.

Q: What about the remaining activity at 10 µM (SmMLCK) of the same molecule?
A: The remaining activity at 10 µM was 108%.

Q: And the remaining activity at 10 µM (CDK9-Cyclin T1)?
A: The remaining activity at 10 µM was 108%.

Q: What about the remaining activity at 10 µM (ABL) of the same molecule?
A: The remaining activity at 10 µM was 108%.

Q: And the remaining activity at 10 µM (Aurora A)?
A: The remaining activity at 10 µM was 94%.

Q: And the remaining activity at 10 µM (CDK2-Cyclin A)?
A: Its remaining activity at 10 µM is 103%.

Q: What about the remaining activity at 10 µM (IGF-1R) of the same molecule?
A: Its remaining activity at 10 µM is 107%.

Q: What about the remaining activity at 10 µM (BRK) of the same molecule?
A: Its remaining activity at 10 µM is 112%.

Q: With `FC(F)(F)c1ccccc1-c1nc(NCc2cccs2)c2ccccc2n1` [Compound 1, NIH-12848, reference compound] as the molecule, how does the IC50 (PI5P4Kγ) read?
A: The IC50 was 2000 to 3000 nM.

— publication PMC9097471, “Development of Selective Phosphatidylinositol 5-Phosphate 4-Kinase γ Inhibitors with a Non-ATP-competitive, Allosteric Binding Mode” (Journal of Medicinal Chemistry, 2022)
